Like-named read-outs stand apart in the source and are kept apart here.
How the values were obtained:
[1] = tested on: pAKT in BT474 cells; assay: Cell-based pAKT HTRF assay in BT474 cells; conditions: BT474 cells, 4 hr incubation, Compounds 10-999, read-out: pAKT inhibition IC50 in BT474 cells
How it was run: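 Compound titration: 3 μM downward in 3-fold steps, nine points, 4 hr on cells. Detection: lysis, then d2 plus Eu Cryptate antibody mix, room-temperature incubation of 4–24 h, and time-resolved fluorescence read at 615 nm.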

[2] = biological target: Cys242 in human PIK3CA (157-299) (Homo sapiens (Human), UniProt P42336); assay: Covalent modification assay using MALDI-TOF MS; format: biochemical; conditions: 4 h reaction time point; 3.33 μM protein target, 1:7.5 protein to compound ratio (compounds 1-852)
How it was run: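 PIK3CA (157-299), 3.33 or 1 μM in 20 mM HEPES, 150 mM NaCl, 2 mM MgCl2, pH 7.3, was incubated with compound at room temperature in the dark for 15 min, 30 min, 2 h or 4 h. Linear MALDI-TOF read-out; % modification = adduct peak height over summed heights of all protein species.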

Cys242 in human PIK3CA (157-299), sequence (P42336 157-299): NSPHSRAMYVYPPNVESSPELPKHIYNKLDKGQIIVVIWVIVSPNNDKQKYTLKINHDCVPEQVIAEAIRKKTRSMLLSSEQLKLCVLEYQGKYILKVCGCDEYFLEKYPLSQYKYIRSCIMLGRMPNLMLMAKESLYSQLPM

Row | IC50 ([1]; Homo sapiens, BT-474) | IC50 [1] | Structure (SMILES) | % of modification [2]
1 | 100 to 1000 nM | – | C=CC(=O)N1CCc2nc(-c3nc(-c4cnn(C5CNC5)c4)c4ccsc4c3-c3ccc(F)cc3OCCOC)sc2C1 [Compound 132, 1-[2-[4-[1-(azetidin-3-yl)pyrazol-4-yl]-7-[4-fluoro-2-(2-methoxyethoxy)phenyl]thieno[3,2-c]pyridin-6-yl]-6,7-dihydro-4H-thiazolo[5,4-c]pyridin-5-yl]prop-2-en-1-one] | A (percent of modification of PIK3CA protein ≥75%)
2 | – | < 100 nM | C=CC(=O)N1CCc2nc(-c3nc(-c4cnc(N)nc4)c4ccsc4c3-c3ccc(F)cc3OCCOC)sc2C1 [Compound 133] | A (percent of modification of PIK3CA protein ≥75%)
3 | – | 1000 to 3000 nM | C=CC(=O)N1CC(n2cc(-c3nc(N4CC5CNCC5C4)c4ccsc4c3-c3ccc(F)cc3OCCOC)cn2)C1 (stereo not drawn) [Compound 134] | B (50%<percent of modification <75%)
4 | – | < 100 nM | C=CC(=O)N1CCc2nc(-c3nc(-c4ccc5c(c4)CCN(C(C)C)C5)c4ccsc4c3-c3ccc(F)cc3OCCOC)sc2C1 [Compound 135] | A (percent of modification of PIK3CA protein ≥75%)
5 | – | 100 to 1000 nM | C=CC(=O)N1CC(n2cc(-c3nc(-c4ccc5c(c4)CCNC5)c4ccsc4c3-c3ccc(F)cc3OC(F)F)cn2)C1 [Compound 136] | A (percent of modification of PIK3CA protein ≥75%)
6 | – | 1000 to 3000 nM | COc1cc(F)ccc1-c1c(-c2cnn(C3CN(C(=O)/C=C/CN(C)C)C3)c2)nc(-c2cnn(CC(F)F)c2)c2ccsc12 [Compound 137] | C (25%≤percent of modification <50%)
7 | – | 100 to 1000 nM | C=CC(=O)N1CC(n2cc(-c3nc(N4CC5(CCNCC5)C4)c4ccsc4c3-c3ccc(F)cc3OCCOC)cn2)C1 [Compound 138] | A (percent of modification of PIK3CA protein ≥75%)
8 | – | 100 to 1000 nM | C=CC(=O)N1CCc2nc(-c3nc(-c4ccn(C(C)C)c(=O)c4)c4ccsc4c3-c3ccc(F)cc3OCCOC)sc2C1 [Compound 139] | A (percent of modification of PIK3CA protein ≥75%)
9 | – | 100 to 1000 nM | C=CC(=O)N1CCc2nc(-c3nc(N4CCN(C(C)C)CC4)c4ccsc4c3-c3ccc(F)cc3OCCOC)sc2C1 [Compound 140] | A (percent of modification of PIK3CA protein ≥75%)
10 | – | < 100 nM | C=CC(=O)N1CCc2nc(-c3nc(-c4ccnc(N)c4)c4ccsc4c3-c3ccc(F)cc3OCCOC)sc2C1 [Compound 141] | A (percent of modification of PIK3CA protein ≥75%)
11 | – | < 100 nM | C=CC(=O)N1CCc2nc(-c3nc(-c4ccc(N)nc4)c4ccsc4c3-c3ccc(F)cc3OCCOC)sc2C1 [Compound 142] | A (percent of modification of PIK3CA protein ≥75%)
12 | 100 to 1000 nM | – | C=CC(=O)N1CCc2nc(-c3nc(C4CCN(C(C)C)CC4)c4ccsc4c3-c3ccc(F)cc3OCCOC)sc2C1 [Compound 143, 1-(2-(7-(4-fluoro-2-(2-methoxyethoxy)phenyl)-4-(1-isopropylpiperidin-4-yl)thieno[3,2-c]pyridin-6-yl)-6,7-dihydrothiazolo[5,4-c]pyridin-5(4H)-yl)prop-2-en-1-one] | A (percent of modification of PIK3CA protein ≥75%)
13 | < 100 nM | – | C=CC(=O)N1CCc2nc(-c3nc(-c4cnn(C)c4)c4ccsc4c3-c3ccc(F)cc3OCC3CCNC(=O)C3)sc2C1 (stereo not drawn) [Compound 144, 4-[[5-fluoro-2-[4-(1-methylpyrazol-4-yl)-6-(5-prop-2-enoyl-6,7-dihydro-4H-thiazolo[5,4-c]pyridin-2-yl)thieno[3,2-c]pyridin-7-yl]phenoxy]methyl]piperidin-2-one] | A (percent of modification of PIK3CA protein ≥75%)
14 | – | 1000 to 3000 nM | C=CC(=O)N1CC(n2cc(-c3nc(C4=CCC5(CC4)CNC5)c4ccsc4c3-c3ccc(F)cc3OCCOC)cn2)C1 [Compound 145] | A (percent of modification of PIK3CA protein ≥75%)
15 | – | < 100 nM | C=CC(=O)N1CCc2sc(-c3nc(-c4ccc5c(c4)CCNC5)c4ccsc4c3-c3ccc(F)cc3OCCOC)nc2C1 [Compound 146] | A (percent of modification of PIK3CA protein ≥75%)
16 | – | 1000 to 3000 nM | C=CC(=O)N1CC(n2cc(-c3nc(C4CCC5(CC4)CNC5)c4ccsc4c3-c3ccc(F)cc3OCCOC)cn2)C1 [Compound 147] | A (percent of modification of PIK3CA protein ≥75%)
17 | – | < 100 nM | C=CC(=O)N1CCc2nc(-c3nc(-c4ccc5c(c4)CCC(N(C)C)C5)c4ccsc4c3-c3ccc(F)cc3OCCOC)sc2C1 (stereo not drawn) [Compound 148] | A (percent of modification of PIK3CA protein ≥75%)
18 | – | 100 to 1000 nM | C=CC(=O)N1CC(n2cc(-c3nc(N4CCC5(CC4)CS(=O)(=O)C5)c4ccsc4c3-c3ccc(F)cc3OCCOC)cn2)C1 [Compound 149] | A (percent of modification of PIK3CA protein ≥75%)

Row | IC50 ([1]; Homo sapiens, BT-474) | IC50 [1] | Structure (SMILES) | % of modification [2]
19 | – | 100 to 1000 nM | C=CC(=O)N1CC(n2cc(-c3nc(N4CCC5(CC4)CNC(=O)C5)c4ccsc4c3-c3ccc(F)cc3OCCOC)cn2)C1 [Compound 150] | A (percent of modification of PIK3CA protein ≥75%)
20 | < 100 nM | – | C=CC(=O)N1CCc2nc(-c3nc(-c4ccc5c(c4)CS(=N)(=O)C5)c4ccsc4c3-c3ccc(F)cc3OCCOC)sc2C1 (stereo not drawn) [Compound 151, 1-[2-[7-[4-fluoro-2-(2-methoxyethoxy)phenyl]-4-(2-imino-2-oxo-1,3-dihydro-2-benzothiophen-5-yl)thieno[3,2-c]pyridin-6-yl]-6,7-dihydro-4H-thiazolo[5,4-c]pyridin-5-yl]prop-2-en-1-one] | A (percent of modification of PIK3CA protein ≥75%)
21 | – | < 100 nM | C=CC(=O)N1CCc2nc(-c3nc(-c4ccc5c(c4)C(O)CC5)c4ccsc4c3-c3ccc(F)cc3OCCOC)sc2C1 (stereo not drawn) [Compound 152] | A (percent of modification of PIK3CA protein ≥75%)
22 | – | < 100 nM | C=CC(=O)N1CCc2nc(-c3nc(-c4ccc5c(c4)CNC5)c4ccsc4c3-c3ccc(F)cc3OCCOC)sc2C1 [Compound 153] | A (percent of modification of PIK3CA protein ≥75%)
23 | – | < 100 nM | C=CC(=O)N1CC(n2cc(-c3nc(-c4ccc5c(c4)CCNC5)c4c(c3-c3ccc(F)cc3OCCOC)CCC4)ccc2=O)C1 [Compound 154] | A (percent of modification of PIK3CA protein ≥75%)
24 | – | < 100 nM | C=CC(=O)N1CCc2nc(-c3nc(-c4ccc5c(c4)CCNC5)c4ccsc4c3-c3ccc(F)cc3OC(C)C)sc2C1 [Compound 155] | A (percent of modification of PIK3CA protein ≥75%)
25 | – | < 100 nM | C=CC(=O)N1CCc2nc(-c3nc(-c4ccc5c(c4)CC(N)C5)c4ccsc4c3-c3ccc(F)cc3OCCOC)sc2C1 (stereo not drawn) [Compound 156] | A (percent of modification of PIK3CA protein ≥75%)
26 | – | < 100 nM | C=CC(=O)N1CC(n2cc(-c3nc(-c4ccc5c(c4)CCNC5)c4ccsc4c3-c3ccc(F)cc3OCCOC)ccc2=O)C1 [Compound 157] | A (percent of modification of PIK3CA protein ≥75%)
27 | – | 100 to 1000 nM | C=CC(=O)N1CC(n2cc(-c3nc(N4CCc5n[nH]c(=O)cc5C4)c4ccsc4c3-c3ccc(F)cc3OCCOC)cn2)C1 [Compound 158] | A (percent of modification of PIK3CA protein ≥75%)
28 | – | 100 to 1000 nM | C=CC(=O)N1CCc2nc(-c3nc(N4CCCC(N(C)C)C4)c4ccsc4c3-c3ccc(F)cc3OCCOC)sc2C1 (stereo not drawn) [Compound 159] | B (50%<percent of modification <75%)
29 | – | < 100 nM | C=CC(=O)N1CCc2nc(-c3nc(-c4ccc5c(c4)CCC5N)c4ccsc4c3-c3ccc(F)cc3OCCOC)sc2C1 (stereo not drawn) [Compound 160] | A (percent of modification of PIK3CA protein ≥75%)
30 | – | < 100 nM | C=CC(=O)N1CCc2nc(-c3nc(-c4ccc5c(c4)CCNC5)c4ccsc4c3-c3ccc(F)cc3OCC3CC3)sc2C1 [Compound 161] | A (percent of modification of PIK3CA protein ≥75%)
31 | – | < 100 nM | C=CC(=O)N1CCc2nc(-c3nc(-c4ccc5c(c4)C(N)CC5)c4ccsc4c3-c3ccc(F)cc3OCCOC)sc2C1 (stereo not drawn) [Compound 162] | A (percent of modification of PIK3CA protein ≥75%)
32 | – | < 100 nM | C=CC(=O)N1CCc2nc(-c3nc(-c4ccc5c(c4)NC(=O)C5)c4ccsc4c3-c3ccc(F)cc3OCCOC)sc2C1 [Compound 163] | A (percent of modification of PIK3CA protein ≥75%)
33 | – | < 100 nM | C=CC(=O)N1CCc2nc(-c3nc(-c4ccc(=O)n(C)c4)c4ccsc4c3-c3ccc(F)cc3OCCOC)sc2C1 [Compound 164] | A (percent of modification of PIK3CA protein ≥75%)
34 | – | < 100 nM | C=CC(=O)N1CC(n2nc(C)c(-c3nc(-c4ccc5c(c4)CCNC5)c4ccsc4c3-c3ccc(F)cc3OC)c2C)C1 [Compound 165] | A (percent of modification of PIK3CA protein ≥75%)
35 | – | 100 to 1000 nM | C=CC(=O)N1CC(n2cc(-c3nc(N4CCc5cn[nH]c5C4)c4ccsc4c3-c3ccc(F)cc3OCCOC)cn2)C1 [Compound 166] | A (percent of modification of PIK3CA protein ≥75%)
36 | – | 100 to 1000 nM | C=CC(=O)N1CCc2nc(-c3nc(N4CCN(S(C)(=O)=O)CC4)c4ccsc4c3-c3ccc(F)cc3OCCOC)sc2C1 [Compound 167] | B (50%<percent of modification <75%)

Reference: US20250230138A1, “COMPOUNDS HAVING A T-STRUCTURE FORMED BY AT LEAST FOUR CYCLES FOR USE IN THE TREATMENT OF CANCER AND OTHER INDICATIONS” (TheRas, Inc., priority 2022, published 2025)
